In ChEMBL document CHEMBL1201862, “PubChem BioAssay data set” (2004):
Active and inactive are the calls of the source.

Columns and labels:
[1] = molecular target: T1, Type-1 angiotensin II receptor (Homo sapiens, UniProt P30556); assay: antagonism of angiotensin II type 1 receptor – cell-based, uHTS hits, selectivity assay for APJ receptor antagonist project, dose response (AID 463214); assay type: functional;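 note: antagonist potency against angiotensin II stimulated AT1 response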
T1 sequence (P30556 whole entry): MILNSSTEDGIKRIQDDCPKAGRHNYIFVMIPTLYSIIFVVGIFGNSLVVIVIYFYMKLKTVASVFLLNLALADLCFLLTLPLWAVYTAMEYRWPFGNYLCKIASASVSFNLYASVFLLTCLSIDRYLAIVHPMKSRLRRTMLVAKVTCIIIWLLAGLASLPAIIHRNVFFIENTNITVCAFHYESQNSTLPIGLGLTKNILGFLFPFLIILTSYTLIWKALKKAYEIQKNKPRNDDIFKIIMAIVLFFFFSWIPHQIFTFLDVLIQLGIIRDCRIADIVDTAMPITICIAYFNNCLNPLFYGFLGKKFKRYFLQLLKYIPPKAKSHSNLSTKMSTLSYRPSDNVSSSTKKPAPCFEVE

Beta-galactosidase = Beta-galactosidase (Escherichia coli, UniProt Q8VNN2); assay: PubChem AID 485352; assay type: functional
[2] = molecular target: T2, Latent membrane protein 1 (Human herpesvirus 4 (strain B95-8), UniProt P03230); assay: LMP1 TES1 pathway selectivity over dsRED control – imaging, HEK293T, dual-color eGFP/dsRED, cherry-picks, selectivity assay for LMP1 NF-kB inhibitor project, dose response (AID 588398); assay type: functional, cell-based
T2 sequence (P03230 whole entry): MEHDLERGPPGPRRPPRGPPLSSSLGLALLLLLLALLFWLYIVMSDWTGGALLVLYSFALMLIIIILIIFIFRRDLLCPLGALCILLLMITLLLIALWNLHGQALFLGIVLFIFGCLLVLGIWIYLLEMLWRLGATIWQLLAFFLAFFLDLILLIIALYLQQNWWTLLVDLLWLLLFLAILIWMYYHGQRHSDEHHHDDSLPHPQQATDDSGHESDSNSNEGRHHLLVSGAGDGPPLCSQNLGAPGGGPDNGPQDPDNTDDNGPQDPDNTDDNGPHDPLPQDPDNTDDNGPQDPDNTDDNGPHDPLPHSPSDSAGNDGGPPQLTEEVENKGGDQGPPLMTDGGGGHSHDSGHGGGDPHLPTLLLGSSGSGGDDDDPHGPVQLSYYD

HEK293 = assay: EBV LMP1 TES2 canonical NF-kB signalling blockers – cell-based, HEK293, luciferase, cherry-pick, dose response (AID 588343); assay type: functional; conditions: Homo sapiens
Cytochrome P450 2C9 [3] = molecular target: T3, Cytochrome P450 2C9 (Homo sapiens, UniProt P11712)
[4] = alpha-synuclein stem-loop luciferase translation blockers – H4 neuroglioma cells, luminescence, confirmation (AID 1988); assay type: functional, cell-based
Vero = assay: cells; assay type: functional, cell-based; conditions: Chlorocebus sabaeus
[5] = luciferase reporter signal suppression in cells – H4 neuroglioma cells, luminescence, dose response (AID 1990); assay type: functional, cell-based
[6] = Luminescence Cell-Based Dose Response HTS to Identify Inhibitors of 5'UTR Stem-Loop Driven Prion Protein mRNA Translation in H4 Neuroglioblastoma Cells. [Related pubchem assays: 1827 (Project Summary), 1813 (Primary HTS)]; assay type: functional
Escherichia coli = assay: microbe, parasite or virus in culture
Cytochrome P450 2C19 = Cytochrome P450 2C19 (Homo sapiens, UniProt P33261); assay: Cytochrome panel assay with activity outcomes. Panel member name: p450-cyp2c19 Compounds with AC50 equal or less than 10 uM are considered active; assay type: functional; conditions: read-out: AC50
Cytochrome P450 2C9 [7] = molecular target: T3, Cytochrome P450 2C9; remark: listed apart in the source
Cytochrome P450 1A2 = molecular target: T4, Cytochrome P450 1A2 (Homo sapiens, UniProt P05177);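 note: PubChem cytochrome P450 panel assay, CYP1A2 panel member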
T4 sequence (P05177 whole entry): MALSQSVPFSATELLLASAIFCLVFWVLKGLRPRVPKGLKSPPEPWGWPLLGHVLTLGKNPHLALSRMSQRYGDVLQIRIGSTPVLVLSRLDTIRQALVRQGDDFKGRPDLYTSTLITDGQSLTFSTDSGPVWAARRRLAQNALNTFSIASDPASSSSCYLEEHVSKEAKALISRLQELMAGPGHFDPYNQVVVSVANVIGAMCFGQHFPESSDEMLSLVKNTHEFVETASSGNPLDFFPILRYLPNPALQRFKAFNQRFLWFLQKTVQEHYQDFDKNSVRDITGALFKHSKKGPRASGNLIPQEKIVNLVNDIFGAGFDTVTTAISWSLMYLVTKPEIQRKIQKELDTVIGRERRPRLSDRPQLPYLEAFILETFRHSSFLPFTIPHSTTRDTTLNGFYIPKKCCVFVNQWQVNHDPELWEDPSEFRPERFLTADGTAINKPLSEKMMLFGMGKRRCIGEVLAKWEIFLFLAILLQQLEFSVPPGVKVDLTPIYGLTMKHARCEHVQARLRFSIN

[8] = molecular target: T5, Short transient receptor potential channel 4 (Mus musculus, UniProt Q9QUQ5); assay: calcium entry via TRPC4 opening agents – cell-based, HEK293 TRPC4/mu-opioid, Fluo-4 calcium, dose response (AID 434937); assay type: functional
T5 sequence (Q9QUQ5 whole entry): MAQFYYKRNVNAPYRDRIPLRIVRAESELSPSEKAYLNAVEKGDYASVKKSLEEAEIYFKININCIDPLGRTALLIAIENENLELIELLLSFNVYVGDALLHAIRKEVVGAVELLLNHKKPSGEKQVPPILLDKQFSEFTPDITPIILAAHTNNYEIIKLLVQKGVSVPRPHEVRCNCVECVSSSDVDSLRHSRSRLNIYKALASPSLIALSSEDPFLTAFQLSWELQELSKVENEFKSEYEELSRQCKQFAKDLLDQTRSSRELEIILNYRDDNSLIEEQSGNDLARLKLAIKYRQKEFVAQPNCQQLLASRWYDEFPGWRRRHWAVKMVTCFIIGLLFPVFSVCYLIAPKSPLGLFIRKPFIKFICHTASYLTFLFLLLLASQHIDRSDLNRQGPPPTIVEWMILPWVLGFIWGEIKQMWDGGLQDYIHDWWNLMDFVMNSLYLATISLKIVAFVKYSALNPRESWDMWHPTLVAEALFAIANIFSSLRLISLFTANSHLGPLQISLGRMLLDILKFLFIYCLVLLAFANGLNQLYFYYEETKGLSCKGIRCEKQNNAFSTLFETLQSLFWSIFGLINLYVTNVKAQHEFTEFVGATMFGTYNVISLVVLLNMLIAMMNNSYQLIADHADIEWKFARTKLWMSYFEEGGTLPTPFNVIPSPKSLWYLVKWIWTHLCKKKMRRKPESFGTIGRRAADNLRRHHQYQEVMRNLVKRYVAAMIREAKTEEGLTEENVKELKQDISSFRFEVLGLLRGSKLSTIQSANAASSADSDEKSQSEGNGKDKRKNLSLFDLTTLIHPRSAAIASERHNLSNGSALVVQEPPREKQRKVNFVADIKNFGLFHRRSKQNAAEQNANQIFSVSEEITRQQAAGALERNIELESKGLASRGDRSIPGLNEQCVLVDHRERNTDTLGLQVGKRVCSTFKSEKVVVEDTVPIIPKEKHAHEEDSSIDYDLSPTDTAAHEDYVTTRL

T3 sequence (P11712 whole entry): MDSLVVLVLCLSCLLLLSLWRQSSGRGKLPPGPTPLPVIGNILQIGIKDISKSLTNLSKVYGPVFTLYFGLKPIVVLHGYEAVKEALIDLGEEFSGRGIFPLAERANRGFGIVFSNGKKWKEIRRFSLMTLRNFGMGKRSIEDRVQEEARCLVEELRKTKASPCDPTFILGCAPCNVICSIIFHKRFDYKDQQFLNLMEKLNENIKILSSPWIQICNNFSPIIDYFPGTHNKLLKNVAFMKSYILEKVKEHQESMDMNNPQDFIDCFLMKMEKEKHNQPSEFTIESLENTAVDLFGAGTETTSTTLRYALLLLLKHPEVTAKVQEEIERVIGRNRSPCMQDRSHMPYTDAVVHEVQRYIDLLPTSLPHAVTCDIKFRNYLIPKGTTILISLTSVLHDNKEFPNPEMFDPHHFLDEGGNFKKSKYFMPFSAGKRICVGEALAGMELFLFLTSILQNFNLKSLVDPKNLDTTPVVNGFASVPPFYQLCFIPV
Chain of Beta-galactosidase (Q8VNN2 whole entry): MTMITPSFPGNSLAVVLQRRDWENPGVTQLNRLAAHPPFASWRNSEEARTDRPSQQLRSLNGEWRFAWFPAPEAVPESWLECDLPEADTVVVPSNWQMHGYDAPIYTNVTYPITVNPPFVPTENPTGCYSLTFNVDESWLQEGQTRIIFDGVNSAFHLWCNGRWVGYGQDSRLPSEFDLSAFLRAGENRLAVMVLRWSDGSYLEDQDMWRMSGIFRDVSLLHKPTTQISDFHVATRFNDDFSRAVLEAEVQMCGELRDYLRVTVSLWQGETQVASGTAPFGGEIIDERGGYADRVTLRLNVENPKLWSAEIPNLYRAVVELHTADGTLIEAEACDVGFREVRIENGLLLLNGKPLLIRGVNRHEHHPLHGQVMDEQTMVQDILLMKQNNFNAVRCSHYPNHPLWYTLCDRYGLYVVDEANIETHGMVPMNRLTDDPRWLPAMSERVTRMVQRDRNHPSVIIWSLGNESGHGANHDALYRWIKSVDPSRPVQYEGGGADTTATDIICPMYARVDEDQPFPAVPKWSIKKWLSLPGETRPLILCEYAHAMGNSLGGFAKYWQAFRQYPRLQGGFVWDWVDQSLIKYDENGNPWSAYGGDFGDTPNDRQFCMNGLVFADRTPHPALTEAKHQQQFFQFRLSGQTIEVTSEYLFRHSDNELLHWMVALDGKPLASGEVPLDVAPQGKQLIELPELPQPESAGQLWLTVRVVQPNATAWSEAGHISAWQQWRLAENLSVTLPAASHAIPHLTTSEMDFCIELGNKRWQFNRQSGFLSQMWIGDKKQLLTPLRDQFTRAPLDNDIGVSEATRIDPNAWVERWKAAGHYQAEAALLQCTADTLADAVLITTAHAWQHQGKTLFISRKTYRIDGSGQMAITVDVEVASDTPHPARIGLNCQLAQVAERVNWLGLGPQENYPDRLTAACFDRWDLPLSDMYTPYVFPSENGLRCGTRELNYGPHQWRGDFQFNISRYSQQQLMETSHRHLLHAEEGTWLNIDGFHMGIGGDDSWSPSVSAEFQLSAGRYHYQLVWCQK
Chain of Cytochrome P450 2C19 (P33261 whole entry): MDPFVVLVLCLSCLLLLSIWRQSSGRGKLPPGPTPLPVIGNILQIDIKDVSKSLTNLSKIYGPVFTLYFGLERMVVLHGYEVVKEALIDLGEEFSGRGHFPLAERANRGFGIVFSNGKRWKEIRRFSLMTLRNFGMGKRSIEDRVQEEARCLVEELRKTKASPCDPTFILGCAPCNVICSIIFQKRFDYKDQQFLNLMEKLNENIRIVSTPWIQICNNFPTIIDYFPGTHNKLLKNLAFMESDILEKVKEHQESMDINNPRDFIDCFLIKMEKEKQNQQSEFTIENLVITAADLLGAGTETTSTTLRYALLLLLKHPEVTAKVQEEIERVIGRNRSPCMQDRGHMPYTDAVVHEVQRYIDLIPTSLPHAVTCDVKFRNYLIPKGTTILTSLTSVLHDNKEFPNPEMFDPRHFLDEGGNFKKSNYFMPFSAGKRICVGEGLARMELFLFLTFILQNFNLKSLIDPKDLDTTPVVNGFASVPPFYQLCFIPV

O=C(CN1C(=O)C2C3CC(C(Br)C3Br)C2C1=O)OCC(=O)c1cccc([N+](=O)[O-])c1 (stereo unspecified)
IC50 [1]: 20.4 µM (not active) | EC50 (Beta-galactosidase): > 40 µM (inactive)

O=C1/C(=C/c2cccnc2)SC(=S)N1Cc1ccco1
AC50 [2]: 39.5 µM (active) | AC50 (HEK293): 0.758 µM (active) | AC50 (Cytochrome P450 2C9 [3]): 6.31 µM (inconclusive)

CC(C)(C)OC(=O)[C@H](Cc1ccccc1)NC(=O)c1[nH]cnc1C(=O)N1CCN(C(=O)OC(C)(C)C)CC1
EC50 [4]: 26.6 µM (active) | IC50 (Vero): 18.3 µM (active) | EC50 [5]: 61.6 µM (active) | EC50 [6]: 20 µM (active)

Cc1ccc(NC(S)=NCCC2=CCCCC2)cc1
AC50 (Escherichia coli): 115 µM (active)

CC(=O)NC(Cc1c[nH]cn1)C(=O)O (stereo unspecified)
AC50 (Escherichia coli): 29.2 µM (active)

Cc1ccc(C(=O)NC2CCCCC2)cc1
AC50 (Cytochrome P450 2C19): 25.1 µM (inconclusive) | AC50 (Cytochrome P450 2C9 [7]): inconclusive | AC50 (Cytochrome P450 1A2): 22.4 µM (inconclusive)

Cc1noc(C)c1C(=O)NNc1ccc(C(C)C)cc1
IC50 [1]: 3.68 µM (active) | EC50 (Beta-galactosidase): > 40 µM (inactive)

Cc1ccc2c(c1)nnn2C1CCN(CC(=O)N2c3ccccc3CC2C)CC1 (stereo unspecified)
EC50 [4]: 81.6 µM (active) | AC50 (Cytochrome P450 2C9 [7]): inconclusive | AC50 (Cytochrome P450 1A2): 6.31 µM (inconclusive) | EC50 [5]: > 120 µM (not active) | EC50 [6]: > 120 µM (not active)

CCC(=O)NC(C)C(c1cccs1)N1CCN(c2ccccc2)CC1 (stereo unspecified)
EC50 [8]: 0.421 µM (active)

Cn1c(N)c(C(=O)COC(=O)CCCN2C(=O)c3ccccc3C2=O)c(=O)n(C)c1=O
AC50 (Escherichia coli): 31.9 µM (active)

COc1ccc(C)c(NC(=O)NCCc2c[nH]cn2)c1
EC50 [8]: 1.88 µM (active)

Cn1c(C(N)=O)cnc1Sc1ncc(C(F)(F)F)cc1Cl
AC50 (Cytochrome P450 2C9 [7]): inconclusive | AC50 (Cytochrome P450 1A2): 28.2 µM (inconclusive)
